Where two headings read alike, the source gives them in different places.
What was measured:
[1] = molecular target: Asu-ACR-16 (nicotine sensitive nAChR) (Ascaris suum, UniProt F1KYJ9); test: Two-electrode voltage-clamp on Asu-ACR-16 nAChR expressed in Xenopus laevis oocytes; format: cell-based
Description: (§1) All nAChR subunit and ancillary factor cRNAs from A. suum (Asu-acr-16 and Asu-ric-3), O. dentatum (Ode-unc-29, Ode-unc-38, […] and Ode-acr-8) and H. contortus (Hco-ric-3, Hco-unc-50 and Hco-unc-74) were prepared as previously described ([Abongwa et al., 2016a], [Buxton et al., 2014]). Briefly, defolliculated X. laevis oocytes were obtained from Ecocyte Bioscience (Austin, TX, USA). A Nanoject II microinjector (Drummond Scientific, Broomall, PA, USA) was used to inject cRNA into the cytoplasm at the animal pole region of the oocytes. Homomeric nAChRs comprising Asu-ACR-16 subunits were expressed by co-injecting 25 ng of Asu-acr-16 with 5 ng of Asu-ric-3 in a total volume of 50 nl in nuclease-free water. Heteromeric nAChRs from O. dentatum were expressed by co-injecting 1.8 ng of each subunit cRNA that make up the levamisole (Ode-unc-29, Ode-unc-38, […] and Ode-acr-8) or pyrantel/tribendimidine (Ode-unc-29, Ode-unc-38 and Ode-unc-63) receptor with 1.8 ng of each H. contortus ancillary factor (Hco-ric-3, Hco-unc-50 and Hco-unc-74) in a total volume of 36 nl in nuclease-free water. Injected oocytes were transferred to 96-well microtiter plates containing 200 μl incubation solution (100 mM NaCl, 2 mM KCl, 1.8 mM CaCl2·2H20, 1 mM MgCl2·6H20, 5 mM HEPES, 2.5 mM Na pyruvate, 100 U·ml^−1penicillin and 100 μg ml^−1 streptomycin, pH 7.5) and incubated at 19 °C for 5–7 days to allow for functional receptor expression. Incubation solution was changed daily.
(§2) Currents produced by activation of expressed Asu-ACR-16 and Ode levamisole sensitive and Ode pyrantel/tribendimidine sensitive receptors were recorded using the two-electrode voltage-clamp electrophysiology technique as previously described ([Abongwa et al., 2016a], [Buxton et al., 2014]). 100 μM BAPTA-AM was added to the oocyte incubation solution about 4 h prior to recording to prevent activation of endogenous calcium-activated chloride currents during recording. Recordings were made using an Axoclamp 2B amplifier (Molecular Devices, Sunnyvale, CA, USA) and data acquired on a computer with Clampex 10.3 (Molecular Devices, Sunnyvale, CA, USA). For all experiments, oocytes were voltage-clamped at −60 mV. Microelectrodes for impaling oocytes were pulled using a Flaming/Brown horizontal electrode puller (Model P-97; Sutter Instruments, Novato, CA, USA). The microelectrodes were filled with 3 M KCl and their tips carefully broken with a piece of tissue paper to attain a resistance of 2–5 MΩ in recording solution (100 mM NaCl, 2.5 mM KCl, 1 mM CaCl2·2H2O and 5 mM HEPES, pH 7.3).
(§3) Electrophysiology data was measured with Clampfit 10.3 (Molecular devices, Sunnyvale CA, USA) and analyzed with GraphPad Prism 5.0 (GraphPad Software Inc., La Jolla, CA, USA). […] Concentration-response relationships (for each oocyte) were analyzed by fitting log concentration-response data points with the Hill equation as previously described ([Boulin et al., 2008]). % inhibition for monepantel was calculated using 100-Rmax for each experiment and plotted as mean ± s.e.m. on the concentration-inhibition plots. IC50's were calculated as previously described ([Zheng et al., 2016]). We used one-way ANOVA to test for statistical differences among treatment groups. If the group means were statistically different (p < .05), we used the Tukey multiple comparison test to determine significant differences between groups.

[2] = molecular target: Ode pyrantel/tribendimidine nAChR (Ode-UNC-29:Ode-UNC-38:Ode-UNC-63) (Oesophagostomum dentatum, UniProt E5KIX9+V5J2B2+V5J336); test: Two-electrode voltage-clamp on Ode pyrantel/tribendimidine receptors expressed in Xenopus laevis oocytes; format: cell-based
Description: as §1, §2, §3

A. suum muscle flaps = test: Muscle contraction assay, isometric contractions of Ascaris body muscle flaps; format: cell-based, Ascaris suum; details: for EC50: Ascaris suum
Description: Adult A. suum were collected from the IMES slaughterhouse, Belgrade, Serbia and maintained in Locke's solution (155 mM NaCl, 5 mM KCl, 2 mM CaCl2, 1.5 mM NaHCO3 and 5 mM glucose) at 32 °C for 5 days. Locke's solution was changed daily. Ascaris muscle flaps for contraction studies were prepared as described in [Trailović et al. (2015)]. Briefly, 1 cm muscle body flaps were prepared by dissecting the anterior 2–3 cm part of the worm. A force transducer in an experimental bath containing 20 ml APF (23 mM NaCl, 110 mM Na acetate, 24 mM KCl, 6 mM CaCl2, 5 mM MgCl2, 11 mM glucose, 5 mM HEPES, pH 7.6) and 0.1% DMSO and bubbled with nitrogen was attached to each muscle flap. The bath was maintained at 37 °C during which isometric contractions of each flap were monitored on a PC computer using a BioSmart interface and eLAB software (EIUnit, Belgrade). The system allows real time recording, display and analysis of experimental data.
Isometric contractions of each Ascaris muscle flap in the absence and presence of monepantel were monitored on a PC computer using eLAB software (EIUnit, Belgrade). GraphPad Prism 5.0 (GraphPad Software Inc., La Jolla, CA, USA) was used to analyze the data. […] Single concentration-response relationships were fitted to the data as described in Section 2.5.1.

[3] = molecular target: Ode levamisole nAChR (Ode-UNC-29:Ode-UNC-38:Ode-UNC-63:Ode-ACR-8) (Oesophagostomum dentatum, UniProt E5KIX9+L7MMZ7+V5J2B2+V5J336); test: Two-electrode voltage-clamp on Ode levamisole receptors expressed in Xenopus laevis oocytes; format: cell-based
Description: as §1
as §2, with “Microelectrodes for impaling oocytes were pulled using a Flaming/Brown horizontal electrode puller (Model P-97; Sutter Instruments, Novato, CA, USA). The microelectrodes were filled with 3 M KCl and their tips carefully broken with a piece of tissue paper to attain a resistance of 2–5 MΩ in recording solution (100 mM NaCl, 2.5 mM KCl, 1 mM CaCl2·2H2O and 5 mM HEPES, pH 7.3).” left out
as §3, with “We used one-way ANOVA to test for statistical differences among treatment groups. If the group means were statistically different (p < .05), we used the Tukey multiple comparison test to determine significant differences between groups.” left out

[4] = system: H. contortus MPTL-1 receptors; set-up: method as in Baur et al., 2015; details: ref Baur et al., 2015, cited from earlier work
A. suum = system: A. suum; set-up: method as in Tritten et al., 2011; details: 600 mg/kg; ref Tritten et al., 2011; cited from earlier work
[5] = system: C. elegans ACR-20 receptors; set-up: method as in Baur et al., 2015; details: ref Baur et al., 2015, cited from earlier work
[6] = read-out: acetylcholine Rmax (mean ± s.e.m.)

Chain of Ode pyrantel/tribendimidine nAChR (Ode-UNC-29:Ode-UNC-38:Ode-UNC-63) (V5J336 entry or part of it): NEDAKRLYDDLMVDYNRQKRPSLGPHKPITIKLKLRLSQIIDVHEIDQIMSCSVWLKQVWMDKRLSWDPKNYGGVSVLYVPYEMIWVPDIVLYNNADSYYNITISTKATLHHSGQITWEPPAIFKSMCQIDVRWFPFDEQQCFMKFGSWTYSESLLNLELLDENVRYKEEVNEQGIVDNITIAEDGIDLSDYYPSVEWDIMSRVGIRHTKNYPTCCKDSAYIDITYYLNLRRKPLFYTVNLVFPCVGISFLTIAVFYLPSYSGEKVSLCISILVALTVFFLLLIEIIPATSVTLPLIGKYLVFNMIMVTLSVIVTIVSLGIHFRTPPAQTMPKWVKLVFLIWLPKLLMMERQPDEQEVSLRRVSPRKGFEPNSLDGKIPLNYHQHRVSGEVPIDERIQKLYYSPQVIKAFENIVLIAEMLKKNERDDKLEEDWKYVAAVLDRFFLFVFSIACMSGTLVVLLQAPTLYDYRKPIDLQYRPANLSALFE
Chain of Ode pyrantel/tribendimidine nAChR (Ode-UNC-29:Ode-UNC-38:Ode-UNC-63) (V5J2B2 entry or part of it): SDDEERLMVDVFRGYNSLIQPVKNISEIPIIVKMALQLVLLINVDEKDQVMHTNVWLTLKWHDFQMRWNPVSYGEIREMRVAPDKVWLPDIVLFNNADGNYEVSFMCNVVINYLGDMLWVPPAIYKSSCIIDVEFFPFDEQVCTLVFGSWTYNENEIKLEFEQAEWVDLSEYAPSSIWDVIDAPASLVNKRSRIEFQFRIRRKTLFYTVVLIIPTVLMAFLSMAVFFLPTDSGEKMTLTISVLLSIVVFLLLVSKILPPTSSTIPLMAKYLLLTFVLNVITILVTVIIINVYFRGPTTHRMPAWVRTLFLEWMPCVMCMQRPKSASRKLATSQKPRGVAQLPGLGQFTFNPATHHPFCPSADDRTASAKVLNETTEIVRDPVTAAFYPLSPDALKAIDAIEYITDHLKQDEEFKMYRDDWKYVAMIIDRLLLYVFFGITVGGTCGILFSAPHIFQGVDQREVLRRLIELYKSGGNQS
Chain of Ode pyrantel/tribendimidine nAChR (Ode-UNC-29:Ode-UNC-38:Ode-UNC-63) (E5KIX9 entry or part of it): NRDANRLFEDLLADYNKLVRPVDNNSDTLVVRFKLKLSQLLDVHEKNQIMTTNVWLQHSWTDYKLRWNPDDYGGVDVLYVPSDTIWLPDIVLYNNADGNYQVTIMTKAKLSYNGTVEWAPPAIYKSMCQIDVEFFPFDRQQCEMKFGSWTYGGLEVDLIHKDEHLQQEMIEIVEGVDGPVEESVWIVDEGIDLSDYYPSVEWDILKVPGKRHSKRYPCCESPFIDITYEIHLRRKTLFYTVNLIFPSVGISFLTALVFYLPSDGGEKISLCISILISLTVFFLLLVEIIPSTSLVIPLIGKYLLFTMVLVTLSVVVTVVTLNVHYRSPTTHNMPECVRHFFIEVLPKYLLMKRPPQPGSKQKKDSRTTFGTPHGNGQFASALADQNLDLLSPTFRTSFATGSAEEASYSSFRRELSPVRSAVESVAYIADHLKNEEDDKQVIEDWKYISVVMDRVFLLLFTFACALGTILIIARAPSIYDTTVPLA
Chain of Ode levamisole nAChR (Ode-UNC-29:Ode-UNC-38:Ode-UNC-63:Ode-ACR-8) (L7MMZ7 entry or part of it): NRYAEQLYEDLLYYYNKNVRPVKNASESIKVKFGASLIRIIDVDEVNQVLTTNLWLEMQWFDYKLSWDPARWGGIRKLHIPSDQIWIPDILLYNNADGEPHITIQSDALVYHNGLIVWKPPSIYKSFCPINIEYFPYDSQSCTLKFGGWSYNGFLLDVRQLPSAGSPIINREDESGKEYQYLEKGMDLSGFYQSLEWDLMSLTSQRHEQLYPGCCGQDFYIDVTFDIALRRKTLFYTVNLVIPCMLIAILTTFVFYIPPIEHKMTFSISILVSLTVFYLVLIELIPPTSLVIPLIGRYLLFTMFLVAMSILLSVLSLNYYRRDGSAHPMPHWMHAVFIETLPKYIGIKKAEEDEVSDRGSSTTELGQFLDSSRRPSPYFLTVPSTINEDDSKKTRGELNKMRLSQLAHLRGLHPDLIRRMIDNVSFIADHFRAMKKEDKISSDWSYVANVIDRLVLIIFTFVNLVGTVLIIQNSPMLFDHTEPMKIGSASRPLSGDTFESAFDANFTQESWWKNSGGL
Chain of Ode levamisole nAChR (Ode-UNC-29:Ode-UNC-38:Ode-UNC-63:Ode-ACR-8) (V5J2B2 entry or part of it): as the sequence (V5J2B2 entry or part of it) above
Chain of Ode levamisole nAChR (Ode-UNC-29:Ode-UNC-38:Ode-UNC-63:Ode-ACR-8) (E5KIX9 entry or part of it): as the sequence (E5KIX9 entry or part of it) above
Chain of Ode levamisole nAChR (Ode-UNC-29:Ode-UNC-38:Ode-UNC-63:Ode-ACR-8) (V5J336 entry or part of it): as the sequence (V5J336 entry or part of it) above
Chain of Asu-ACR-16 (nicotine sensitive nAChR) (F1KYJ9 entry or part of it): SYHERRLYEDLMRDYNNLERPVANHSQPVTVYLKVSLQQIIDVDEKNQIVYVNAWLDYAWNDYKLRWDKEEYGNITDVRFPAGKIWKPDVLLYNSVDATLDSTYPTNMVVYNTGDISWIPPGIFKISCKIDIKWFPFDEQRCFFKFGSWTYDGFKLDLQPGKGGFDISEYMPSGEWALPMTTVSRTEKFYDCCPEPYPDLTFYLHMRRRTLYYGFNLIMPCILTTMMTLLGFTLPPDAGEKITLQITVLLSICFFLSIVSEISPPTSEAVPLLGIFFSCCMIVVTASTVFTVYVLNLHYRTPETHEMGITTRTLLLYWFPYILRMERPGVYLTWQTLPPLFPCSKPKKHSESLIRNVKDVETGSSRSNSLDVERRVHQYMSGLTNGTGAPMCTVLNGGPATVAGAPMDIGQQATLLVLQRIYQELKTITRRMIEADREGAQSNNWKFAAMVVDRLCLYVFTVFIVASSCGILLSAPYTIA

CC(=O)OCC[N+](C)(C)C [Acetylcholine]
Emax [1, 6]: 97.5 ± 1.2%
EC50 [2]: 11.3 ± 1.3 µM
Emax [2, 6]: 118 ± 4.5%
EC50 (A. suum muscle flaps; read-out: acetylcholine EC50 (contraction)): 5.3 µM
EC50 (A. suum muscle flaps; read-out: acetylcholine log EC50 ± s.e.m. (contraction) (converted)): 5.01 µM
acetylcholine Rmax (mean ± s.e.m.), contraction (A. suum muscle flaps; acetylcholine alone (control)): 1.7 ± 0.4 g
Emax [3, 6]: 108.8 ± 1%

C[C@](C#N)(COc1cc(C#N)ccc1C(F)(F)F)NC(=O)c1ccc(SC(F)(F)F)cc1 [monepantel, N-[(2S)-2-cyano-1-[5-cyano-2-(trifluoromethyl)phenoxy]propan-2-yl]-4-(trifluoromethylsulfanyl)benzamide]
concentration at which it acts as direct agonist ([4]; high concentrations): > 0.1 µM
concentration at which it acts as positive allosteric modulator ([4]; low concentrations): < 1 nM
IC50 [1]: 200 nM
type of antagonism of acetylcholine responses ([1]; co-applied with acetylcholine): non-competitive antagonism
maximum inhibition ([1]; component with IC50 1.6 nM): 40%
maximum inhibition ([1]; component with IC50 0.2 μM): ~100%
agonist action (receptor activation) ([1]; monepantel applied on its own): did not cause activation
in vivo activity against A. suum (A. suum): lack in vivo activity
IC50 [2]: 1700 ± 700 nM
type of antagonism of acetylcholine responses ([2]; co-applied with acetylcholine): non-competitive antagonism
agonist action (receptor activation) ([2]; monepantel alone): did not activate
concentration at which it acts as direct agonist ([5]; high concentrations): > 0.1 µM
concentration at which it acts as positive allosteric modulator ([5]; low concentrations): < 1 nM
type of antagonism of acetylcholine induced contractions (A. suum muscle flaps; 1-30 μM monepantel): mixture of competitive and non-competitive antagonism
acetylcholine Rmax (mean ± s.e.m.), contraction (A. suum muscle flaps; in the presence of 3 μM monepantel): 1.1 ± 0.3 g
acetylcholine Rmax (mean ± s.e.m.), contraction (A. suum muscle flaps; in the presence of 10 μM monepantel): 1.1 ± 0.5 g
acetylcholine Rmax (mean ± s.e.m.), contraction (A. suum muscle flaps; in the presence of 30 μM monepantel): 0.5 ± 0.4 g
effect on baseline tension (A. suum muscle flaps; monepantel on its own): did not produce any significant change in baseline tension
IC50 [3]: 5 ± 0.5 µM
type of antagonism of acetylcholine responses ([3]; co-applied with acetylcholine): non-competitive antagonist
agonist action (receptor activation) ([3]; monepantel applied alone): failed to activate

— publication PMC5963102 (International Journal for Parasitology: Drugs and Drug …, 2017)
